These results are taken from paper PMC7244523, “A Cell-based Screen in Actinomyces oris to Identify Sortase Inhibitors” (Scientific Reports, 2020).

This assay deals with A. oris MG-1 (wild-type) versus ΔsrtA/ΔgspA strain. The assay can be described thus: High-throughput cell-based growth screen and counter-screen (differential growth). Set-up: species or system Actinomyces oris. The settings on record: differential effect on wild-type MG-1 and ΔgspAΔsrtA strains in the HTS; 10 µM, in duplicate; 100 = extreme difference, 0 = none. As for the experimental part: In the primary screen, a total of 200,834 small molecules were tested for their ability to impair A. oris MG-1 growth. Cells were added to an optical density (OD600) of 0.01 in media containing 10 µM of each molecule, followed by a 15 hour incubation at 37 °C and end-point OD600 measurement. The growth effect of each molecule was normalized and expressed as a percent growth relative to the DMSO-only control (see Methods). A total of 1,904 molecules were classified as preliminary hits (0.95% of the molecules tested), as they reduced MG-1 growth after 15 hours by at least 34%, or 2.75 standard deviations below the average. The preliminary hits were then subjected to a counter-screen in which their growth effects on ΔsrtA/ΔgspA were determined. In order to eliminate potentially erroneously identified preliminary hits, the counter-screen and preliminary screen was performed in duplicate for the 1,904 preliminary hit molecules. A molecule was deemed as a hit if it caused greater than 15% differential growth effect in duplicate when the MG-1 and ΔsrtA/ΔgspA strains were compared. […] Data is plotted as the percentage of growth inhibition for each molecule (see Methods).
A total of 200,834 small molecule compounds (Molecular Screening Shared Resource, UCLA) were dissolved in 100% Omnisolv methylsulfoxide (MilliporeSigma MX1456P-6) and stored in 384-well polypropylene plates. Actinomyces oris MG-1 and ΔgspAΔsrtA were streaked out on BHI agar plates containing 50 µg/mL kanamycin and grown at 37 °C for 48 hours to allow single colonies to grow. Cultures were started from 2–3 colonies in BHI with 50 µg/mL kanamycin and allowed to grow until an OD600 between 0.1–0.4. Meanwhile, 384-well plates were filled with 25 µL BHI broth with 100 µg mL^−1 kanamycin (columns 1–22) or 200 µg mL^−1 Penicillin G (positive control, columns 23–24). Five hundred nanoliters of small molecules were transferred into the media (columns 3–22) using the Biomex FX^P automated work station with a 384-well pin tool. Precultures were diluted to an OD600 of 0.02 in 1 L BHI broth without antibiotics. Twenty five microliters of cell culture was immediately aliquoted into plates containing 25 µL media, antibiotics, and small-molecules using a Multidrop (Thermo LabSystems), resulting in 50 µg mL^−1 kanamycin and 10 µM small molecules with 1% DMSO or 100 µg mL^−1 Penicillin G. Plates were immediately lidded and placed into a humidified Cytomat 6001 incubator at 37 °C and allowed to grow for 15.5 hours. Following incubation, plates were removed from the Cytomat using a Thermo Spinnaker robotic arm on a rail, de-lidded, and placed into an EnVision high-speed plate reader for optical density measurement at 620 nm.
Raw data obtained from the screen was formatted in-house to upload to the Collaborative Drug Discovery Vault (www.collaborativedrug.com). Individual optical density readings were converted to a percent growth value ([ODsample-ODPositive control]/[ODNegative Control Average- ODPositive control]) and percent growth inhibition (1-percent growth). The Z-factors for the individual molecules were determined. Molecules with a Z-factor less than or equal to -2.75 were considered preliminary hits to advance forward a generous collection of preliminary hit molecules. Five microliters of each of the 1904 preliminary hit molecules were re-arrayed into new 384-well polypropylene plates. Each of the 1904 preliminary hits were assayed against both the MG-1 and ΔgspAΔsrtA strains in duplicate, on two separate days. Percent difference of growth was calculated according to the equation 100–100[(ODMG-1, Sample-ODMG-1, Positive Control)/ODΔgspAΔsrtA, Sample-ODΔgspAΔsrtA, Positive Control)]/[(ODMG-1, Average-ODMG-1, Positive Control)/ODΔgspAΔsrtA, Average-ODΔgspAΔsrtA, Positive Control)]. […] Molecules were ranked according to their relative growth.
For orientation: The purpose of a counterscreen is to sort out artefacts and off-target activity.
As for `Cc1nc(COc2ccc(F)cc2)sc1CC(=O)Nc1nc2c(s1)CC(C)CC2` (stereo not drawn) [Compound 6], the “Differential Growth” value is 71.8 ± 16.5%. The same measure for `CCc1ccc2nc(N(Cc3cccnc3)C(=O)c3ccc([N+](=O)[O-])o3)sc2c1` [Compound 3]: 17.5 ± 3.5%; for `COc1ccc2nc(N(Cc3ccccc3)C(=O)c3ccc([N+](=O)[O-])o3)sc2c1` [Compound 4]: 38.5 ± 0.5%.
